From PMC3582657 (Clinical pharmacology and therapeutics, 2008)
Values joined by “and” are separate entries in the source; they are usually repeats but may differ in a detail not shown here. Equal values may be shown once. Read-outs that look alike come from different tables or passages of the source. Each block holds one molecule with its values, some of them ahead of it.

Legend:
[1] = Safety assessment in the clinical study; type: in vivo, human
P-glycoprotein (P-gp) = conditions: cited from earlier work
[2] = multiple doses of rifampin; cited from earlier work
[3] = mean±SD; for CL renal: human, urine, CLr (renal clearance)
blood glucose [4] = conditions: concomitant rifampin versus control; cited from earlier work
blood glucose [5] = experiment: Blood glucose level after glyburide dosing; type: in vivo, human; conditions: rifampin IV (Treatment C) phase in comparison to other treatment groups; repeated ANOVA p<0.0001
[6] = type: in vivo, human
[7] = background statement, no reference given; cited from earlier work
[8] = Treatment A: 1.25 mg oral glyburide alone (control), mean±SD, n=9
[9] = Treatment A: 1.25 mg oral glyburide alone (control), median and range
[10] = Treatment B (ciprofloxacin IV phase) vs Treatment A
[11] = Treatment B: 200 mg iv ciprofloxacin just before 1.25 mg oral glyburide, median and range
[12] = Treatment C (rifampin IV phase) vs Treatment A
[13] = Treatment C: single 600 mg iv rifampin then 1.25 mg oral glyburide, mean±SD, n=9
[14] = Treatment D (rifampin IV after oral induction) compared with Treatment E
[15] = Treatment D (rifampin IV after oral induction) compared with control Treatment A
[16] = Treatment D (rifampin IV/PO phase) vs Treatment A
[17] = Treatment D: 600 mg oral rifampin daily for 6 days, next day 600 mg iv rifampin then 1.25 mg oral glyburide, median and range
[18] = Treatment E (rifampin PO phase) vs Treatment A
[19] = single IV infusion of rifampin (Treatment C) compared with control Treatment A
[20] = single IV infusion of rifampin (Treatment C) vs control Treatment A
[21] = Treatment A: 1.25 mg oral glyburide alone (control), plasma, mean±SD, n=9
[22] = iv rifampin effect under induced conditions (Treatment D / Treatment E)
[23] = iv rifampin effect under noninduced conditions (Treatment C / Treatment A)

SMILES: CO[C@H]1/C=C/O[C@@]2(C)Oc3c(C)c(O)c4c(O)c(c(/C=N/N5CCN(C)CC5)c(O)c4c3C2=O)NC(=O)/C(C)=C\C=C\[C@H](C)[C@H](O)[C@@H](C)[C@@H](O)[C@@H](C)[C@H](OC(C)=O)[C@@H]1C [rifampin]
adverse event leading to withdrawal ([1]; one subject, after visit 3): allergy to rifampin | inhibition of Pgp (P-glycoprotein (P-gp)): does not inhibit Pgp

0–12h accumulated urine excretion ([3]; Treatment A, glyburide control): 1.8 ± 1.1 µg | 0–12h accumulated urine excretion ([3]; Treatment B, ciprofloxacin IV): 1.7 ± 0.6 µg | 0–12h accumulated urine excretion ([3]; Treatment C, rifampin IV): 3.9 ± 1.3 µg | 0–12h accumulated urine excretion ([3]; Treatment D, rifampin IV/PO): 1.4 ± 0.5 µg | 0–12h accumulated urine excretion ([3]; Treatment E, rifampin PO): 1.3 ± 0.7 µg | CL renal ([3]; iv, Treatment B, ciprofloxacin IV): 0.36 mL/day/kg | CL renal ([3]; iv, Treatment C, rifampin IV): 0.384 mL/day/kg | CL renal ([3]; oral, 1.25 mg, Treatment A, glyburide control): 0.408 mL/day/kg | CL renal ([3]; oral, Treatment D, rifampin IV/PO): 0.384 mL/day/kg | CL renal ([3]; po, 1.25 mg, Treatment E, rifampin PO): 0.744 mL/day/kg | CL/F [6, 8]: 10.1±3.1 mI/h/kg | Vss/F [6, 8]: 49±33 mI/kg | Tmax [6, 9]: 3(2–4) h | AUC0-∞, mean % of control [6, 10]: 107 % of control | Cmax, mean % of control [6, 10]: 95 % of control | MRT, mean % of control [6, 10]: 119 % of control | t1/2, mean % of control [6, 10]: 108 % of control | Tmax [6, 11]: 3(2–6) h | AUC0-∞, mean % of control [6, 12]: 225 % of control | Cmax, mean % of control [6, 12]: 181 % of control | MRT, mean % of control [6, 12]: 84 % of control | t1/2, mean % of control [6, 12]: 84 % of control | CL/F [6, 13]: 4.59±1.20 mI/h/kg | Vss/F [6, 13]: 16±7 mI/kg | increase in AUC [6, 14]: 120±56% | increase in Cmax [6, 14]: 92±76% | decrease in AUC0-∞ [6, 15]: 22±21% and 22% | decrease in Cmax [6, 15]: 9±0.3% and 8% | AUC0-∞, mean % of control [6, 16]: 78 % of control | Cmax, mean % of control [6, 16]: 91 % of control | MRT, mean % of control [6, 16]: 61 % of control | Tmax [6, 17]: 3(2–4) h | AUC0-∞, mean % of control [6, 18]: 37 % of control | Cmax, mean % of control [6, 18]: 52 % of control | MRT, mean % of control [6, 18]: 53 % of control | change in any pharmacokinetic parameter ([6]; ciprofloxacin co-administered with glyburide (Treatment B) vs Treatment A): No significant changes in any parameter | Tmax ([6]; human, plasma, oral): 3 h | Tmax ([6]; human, plasma, po, 1.25 mg): 3 h | AUC(0-inf) ([6]; human, plasma, po, 1.25 mg, AUC0-∞, Treatment A: 1.25 mg oral glyburide alone (control), plasma, mean±SD, n=9): 1890 ± 682 ng·h/mL | Cmax ([6]; human, plasma, po, 1.25 mg, Cmax, Treatment A: 1.25 mg oral glyburide alone (control), plasma, mean±SD, n=9): 384 ± 135 ng/mL | MRT ([6]; human, plasma, po, 1.25 mg, MRT, Treatment A: 1.25 mg oral glyburide alone (control), mean±SD, n=9): 4.5 ± 2 h | half-life ([6]; human, plasma, po, 1.25 mg, t1/2, Treatment A: 1.25 mg oral glyburide alone (control), mean±SD, n=9): 4.7 ± 1.3 h | increase in AUC0-∞ [6, 19]: 125± 51.5% and 125% | increase in Cmax [6, 19]: 81 ± 28% and 81% | change in apparent terminal half-life (t1/2) ([6]; single IV infusion of rifampin (Treatment C) vs control): did not change | decrease in oral clearance (CL/F) [6, 20]: 53 ± 13% | decrease in oral steady-state volume of distribution (Vss/F) [6, 20]: 60 ± 29%
SMILES: COc1ccc(Cl)cc1C(=O)NCCc1ccc(S(=O)(=O)NC(=O)NC2CCCCC2)cc1 [glyburide]
decrease in AUC of glyburide by rifampin [2]: 39% | decrease in maximal concentration (Cmax) of glyburide by rifampin [2]: 22% | serious adverse events ([1]; during or after the study, all treatments): No serious adverse events | change in blood glucose decremental AUC(0–7) (net area below baseline) (blood glucose [4]): −44% | change in maximum decrease in the blood glucose concentration (blood glucose [4]): −36% | decremental AUC0–12 of blood glucose (blood glucose [5]): statistically significant decrease

0–12h accumulated urine excretion ([3]; Treatment A, glyburide control): 358 ± 107 µg | CLr (renal clearance) ([3]; Treatment A, glyburide control): 2200 ± 619 mL/day/kg | 0–12h accumulated urine excretion ([3]; Treatment B, ciprofloxacin IV): 325 ± 77 µg | CLr (renal clearance) ([3]; Treatment B, ciprofloxacin IV): 2220 ± 564 mL/day/kg | 0–12h accumulated urine excretion ([3]; Treatment C, rifampin IV): 457 ± 72 µg | CLr (renal clearance) ([3]; Treatment C, rifampin IV): 2120 ± 629 mL/day/kg | 0–12h accumulated urine excretion ([3]; Treatment D, rifampin IV/PO): 208±56 ^** ug | CLr (renal clearance) ([3]; Treatment D, rifampin IV/PO): 2100 ± 401 mL/day/kg | 0–12h accumulated urine excretion ([3]; Treatment E, rifampin PO): 135 ± 40 µg | CLr (renal clearance) ([3]; Treatment E, rifampin PO): 2200 ± 665 mL/day/kg | AUCm/AUCp (AUC ratio of 4-hydroxyglyburide to glyburide) ([6]; Treatment A, glyburide control, mean±SD): 3.67±1.03% | MRT [6, 8]: 1.6 ± 0.9 h | t1/2 [6, 8]: 4.2 ± 1.7 h | Tmax [6, 9]: 4(3–6) h | AUC0-∞ [6, 21]: 66.0 ± 23.2 ng·h/mL | Cmax [6, 21]: 9.67 ± 2.51 ng/mL | AUC0-∞, mean % of control [6, 10]: 101 % of control | Cmax, mean % of control [6, 10]: 99 % of control | MRT, mean % of control [6, 10]: 89 % of control | t1/2, mean % of control [6, 10]: 115 % of control | AUCm/AUCp (AUC ratio of 4-hydroxyglyburide to glyburide) ([6]; Treatment B, ciprofloxacin IV, mean±SD): 3.34±0.37% | Tmax [6, 11]: 4(3–8) h | AUC0-∞, mean % of control [6, 12]: 145 % of control | Cmax, mean % of control [6, 12]: 134 % of control | MRT, mean % of control [6, 12]: 121 % of control | t1/2, mean % of control [6, 12]: 102 % of control | AUCm/AUCp (AUC ratio of 4-hydroxyglyburide to glyburide) ([6]; Treatment C, rifampin IV, mean±SD): 2.36±0.61 % | MRT [6, 13]: 1.5 ± 0.8 h | t1/2 [6, 13]: 3.8 ± 0.7 h | Tmax ([6]; Treatment C: single 600 mg iv rifampin then 1.25 mg oral glyburide, median and range): 4(3–6) h | increase in AUC [6, 14]: 67±44% | increase in Cmax [6, 14]: 49±44% | decrease in Cmax [6, 15]: not significant | AUC0-∞, mean % of control [6, 16]: 54 % of control | Cmax, mean % of control [6, 16]: 81 % of control | MRT, mean % of control [6, 16]: 77 % of control | decrease in mean residence time (MRT) ([6]; Treatment D versus control Treatment A): 23% | AUCm/AUCp (AUC ratio of 4-hydroxyglyburide to glyburide) ([6]; Treatment D, rifampin IV/PO, mean±SD): 2.52±0.35 % | Tmax [6, 17]: 4(3–6) h | AUC0-∞, mean % of control [6, 18]: 33 % of control | Cmax, mean % of control [6, 18]: 56 % of control | MRT, mean % of control [6, 18]: 41 % of control | AUCm/AUCp (AUC ratio of 4-hydroxyglyburide to glyburide) ([6]; Treatment E, rifampin PO, mean±SD): 3.36±0.60% | AUC0-∞, ratio D to E [6, 22]: 1.7±0.4 | Cmax, ratio D to E [6, 22]: 1.5±0.4 | MRT, ratio D to E [6, 22]: 1.3±1.3 | AUC0-∞, ratio C to A [6, 23]: 1.5±0.4 | Cmax, ratio C to A [6, 23]: 1.3±0.5 | MRT, ratio C to A [6, 23]: 1.2±0.9 | increase in AUC0-∞ [6, 19]: 45 ± 37% | increase in Cmax [6, 19]: 34 ± 47%
SMILES: COc1ccc(Cl)cc1C(=O)NCCc1ccc(S(=O)(=O)NC(=O)NC2CCC(O)CC2)cc1 (stereo not drawn) [4-hydroxyglyburide, 4-trans-hydroxyglyburide]
hypoglycemic activity (potency) retained relative to the parent compound [7]: 75%

SMILES: COc1ccc(Cl)cc1C(=O)NCCc1ccc(S(=O)(=O)NC(=O)N[C@@H]2CCC[C@H](O)C2)cc1 (relative stereo) [3-cis-hydroxyglyburide]
hypoglycemic activity (potency) retained relative to the parent compound [7]: 50%
